# Where no end group is shown, it is not given here.
# Legend:
# TRF2 protein [1] = test: TRF2 immunolabelling in normal human keratinocytes (NHK), long-term culture; assay type: cell-based
# Experimental: (§1) The goal of this study is to determine the influence of peptide SEQ ID No. 4 on TRF2 protein expression in human skin, a protein specifically associated with telomeres and involved in their maintenance. To do this, specific labeling by immunofluorescence was carried out on normal human keratinocytes (NHK) culture and on normal human fibroblast cultures on a long-term basis.
# (§2) Protocol: NHK or normal human fibroblasts in culture are treated once per day with a solution at 10^−6M or at 3×10^−6M of peptide SEQ ID No. 4, between passage 5 and passage 17 (or 12 passages) for fibroblasts and between passage 1 and passage 2 (or 1 passage and 10 days of treatment) for NHK.
# (§3) For immunolabelling by anti TRF2 antibodies, the cells are washed and fixed with paraformaldehyde at 3.7% for 10 minutes. The cells are then incubated in the presence of a specific anti TRF2 antibody (Abeam, ref ab13579, polyclonal mouse), and then a secondary suitable antibody, coupled with a fluorescent dye. After mounting in a particular medium, the slides are observed by epifluorescence microscope (Nikon Eclipse E 80i microscope). Fluorescence intensity is quantified by analyzing the image using the Image-Pro Analyser version 5 software.
# TRF2 protein [2] = test: TRF2 immunolabelling in normal human fibroblasts, long-term culture; assay type: cell-based
# Experimental: as §1, §2, §3
# sirtuin 6 (SIRT6) [3] = test: Sirtuin 6 immunolabelling (immunofluorescence) in normal human keratinocytes (NHK); assay type: cell-based; settings: for SIRT6 fluorescence versus control conditions: 10^−6M or 3×10^−6 M, all conditions tested (short- and long-term); for sirtuin 6 expression stimulation effect in long-term treatment: passage 3 to passage 5
# Experimental: (§4) The object of this study is to determine the influence of peptides SEQ ID No. 5 and SEQ ID No. 7 on Sirtuin 6 expression in human skin. To do this, specific labeling by immunofluorescence was carried out on normal human keratinocytes (NHK) culture and on normal human fibroblast cultures.
# (§5) Protocol: NHK or normal human fibroblasts are treated once per day with a solution at 10^−6M or at 3×10^−6M of peptide SEQ ID No. 5 or peptide SEQ ID No. 7.
# (§6) Short-term treatment studies for 24, 48 and 72 hours were carried out.
# (§7) Long-term treatment studies were also carried out between passage 5 and passage 17 (or 12 passages) for fibroblasts and between passage 3 and passage 5 (or 2 subcultures) for NHK.
# as §3, with “SIRT6” for “TRF2”, “ab62738,” for “ab13579,”, “rabbit),” for “mouse),”
# normal human fibroblasts = test: Comet assay after UVB irradiation of normal human fibroblasts; assay type: cell-based; settings: peptide 3×10^−6 M 24 h before and 24 h after UVB 60 mJ/cm^2
# Experimental: The goal of this study is to determine the protective effect of peptide SEQ ID No. 5 on damage caused to the DNA by UV radiation. To do this, a comet assay, that enables damage caused to the DNA at the cellular level to be quantified, was performed.
# Protocol: Normal human fibroblasts are cultured for 24 hours with the peptide of sequence SEQ ID No. 5 at a concentration of 10^−6M or 3×10^−6M, and then irradiated with UVB radiation at a rate of 60 mJ/cm^2, and then treated again for 24 hours by the peptide at a concentration of 10^−6M or 3×10^−6M. A control condition is carried out in the absence of treatment. The cells are then detached from their support by the trypsin, then centrifuged at 1200 rotations/min for 10 minutes in order to concentrate and count them.
# A defined number of cells (25,000 cells) is then included in a Low Melting agarose gel at 0.75%, and then deposited on a glass slide previously covered with agarose at 1%. The slides are then immersed in a lysis solution for 1½ hours at 4° C., and then in an alkaline solution for 20 min at 4° C. The cells are thus lyzed and the DNA is denatured. […]
# Quantification software enables the mean “Tail Moment” (or length of the comet tail) applied to each condition tested to be determined This parameter provides information on the level of DNA damage: the higher this parameter, the greater the DNA degradation.
# transglutaminase 1 (TG1) = test: Epidermal differentiation marker immunolabelling in NHK: transglutaminase 1; assay type: cell-based, human; settings: 10^−6 M or 3×10^−6 M, 2 passages and 11 days of treatment
# Experimental: (§8) The goal of this study is to determine the influence of peptide SEQ ID No. 5 on epidermal differentiation. To do this, the expression of the main epidermal differentiation markers, specifically expressed in the keratinocytes of suprabasal layers cultivated on a long-term basis, was studied. The markers tested are transglutaminase 1 and involucrin.
# (§9) Protocol: NHK in culture are treated once per day with a solution at 10^−6M or at 3×10^−6M of peptide SEQ ID No. 5, between passage 1 and passage 3 (or 2 passages and 11 days of treatment). The cells are then washed and fixed. After unmasking the specific sites, the cells are incubated in the presence of a specific antibody directed against TG1 (TEBU, ref sc-25786, polyclonal rabbit), a specific antibody directed against involucrin (Novocastra NCL-INV, mouse monoclonal, clone SYS), and then incubated in the presence of a suitable secondary antibody, coupled with a fluorescent dye. For greater ease of observation, the cell nuclei may be counterstained by DAPI (4′,6′ Di Amidino-2-Phenylindole), a fluorescent blue molecule capable of strongly bonding to DNA). After mounting in a particular medium, the slides are observed by epifluorescence microscope (Nikon Eclipse E 80i microscope).
# sirtuin 6 (SIRT6) [4] = test: Sirtuin 6 immunolabelling (immunofluorescence) in normal human fibroblasts; assay type: cell-based; settings: for SIRT6 fluorescence versus control conditions: 10^−6M or 3×10^−6 M, all conditions tested (short- and long-term); for sirtuin 6 expression stimulation effect in long-term treatment: passage 5 to passage 17
# Experimental: as §4, §5, §6, §7
# as §3, with “SIRT6” for “TRF2”, “ab62738,” for “ab13579,”, “rabbit),” for “mouse),”
# collagen III = test: Collagen III immunolabelling in normal human fibroblasts, long-term culture; assay type: cell-based; settings: 10^−6M or 3×10^−6M, passage 5 to 17
# Experimental: (§10) The goal of this study is to determine the influence of peptide SEQ ID No. 5 on the expression of dermal extracellular matrix molecules. To do this, the expression of collagens I and III in normal human fibroblasts cultivated on a long-term basis was studied.
# (§11) Protocol: Normal human fibroblasts are treated once per day with a solution at 10^−6 M or at 3×10^−6 M of peptide SEQ ID No. 5, between passage 5 and passage 17 (or 12 passages). The cells are then washed and fixed with cold methanol for 5 minutes. After unmasking specific sites, the cells are incubated in the presence of a specific antibody directed against collagen I (TEBU, ref 600-401-103, polyclonal rabbit) or against collagen III (TEBU, ref 600-401-105, polyclonal rabbit), and then incubated in the presence of a suitable secondary antibody, coupled with a fluorescent dye. After mounting in a particular medium, the slides are observed by epifluorescence microscope (Nikon Eclipse E 80i microscope).
# collagen I = test: Collagen I immunolabelling in normal human fibroblasts, long-term culture; assay type: cell-based; settings: 10^−6M or 3×10^−6M, passage 5 to 17
# Experimental: as §10, §11
# involucrin = test: Epidermal differentiation marker immunolabelling in NHK: involucrin; assay type: cell-based, human; settings: 10^−6 M or 3×10^−6 M, 2 passages and 11 days of treatment
# Experimental: as §8, §9
# sirtuin 6 (SIRT6) [5] = test: Sirtuin 6 immunolabelling in NHK after oxidative stress by H2O2; assay type: cell-based, human
# Experimental: The goal of this study is to determine the protective effect of peptide SEQ ID No. 5 on keratinocytes during oxidative stress. To do this, the expression of Sirtuin 6 was qualitatively and quantitatively evaluated by specific immunolabelling after oxidative stress by H2O2.
# Protocol: The NHK in culture are treated for 24 hours with a solution at 10^−6M or 3×10^−6M of peptide SEQ ID No. 5. The cells are then incubated in the presence of H2O2 at 2 mM, rinsed and then treated for another 24 hours with a solution at 10^−6M or 3×10^−6M of peptide SEQ ID No. 5. A control that was not treated and not subjected to the H2O2 stress (control 0), as well as a control that was not treated but was subjected to the H2O2 stress (control 1) were carried out.
# as §3, with “SIRT6” for “TRF2”, “(Abcam,” for “(Abeam,”, “ab62738,” for “ab13579,”
# [6] = 10^−6 M or 3×10^−6 M, long-term
transglutaminase 1 fluorescence versus control conditions (transglutaminase 1 (TG1)),Substance,TRF2 fluorescence versus control conditions (TRF2 protein [1]; [6]),"maximum increase of the TRF2 fluorescence with relation to the control cells (TRF2 protein [1]; treated for 10 days, 3×10^−6 M peptide)",TRF2 fluorescence versus control conditions (TRF2 protein [2]; [6]),"maximum increase of the TRF2 fluorescence with relation to the control cells (TRF2 protein [2]; treated for 12 subcultures, 10^−6 M peptide)",SIRT6 fluorescence versus control conditions (sirtuin 6 (SIRT6) [3]),sirtuin 6 expression stimulation effect in long-term treatment (sirtuin 6 (SIRT6) [3]),"maximum increase of the SIRT6 fluorescence with relation to the control cells (sirtuin 6 (SIRT6) [3]; treated 72 hours, 3×10^−6M peptide)",reduction of the Tail Moment compared to the control conditions (normal human fibroblasts),SIRT6 fluorescence versus control conditions (sirtuin 6 (SIRT6) [4]),sirtuin 6 expression stimulation effect in long-term treatment (sirtuin 6 (SIRT6) [4]),"maximum increase of the SIRT6 fluorescence with relation to the control cells (sirtuin 6 (SIRT6) [4]; treated 24 hours, 10^−6 M peptide)",collagen III fluorescence versus control conditions (collagen III),collagen I fluorescence versus control conditions (collagen I),involucrin fluorescence versus control conditions (involucrin),"increase in SIRT6 expression with relation to control 1 (untreated, H2O2 stress) (sirtuin 6 (SIRT6) [5]; peptide 3×10^−6 M 24 h before and 24 h after H2O2 2 mM)","increase in SIRT6 expression with relation to control 1 (untreated, H2O2 stress) (sirtuin 6 (SIRT6) [5]; peptide 10^−6M 24 h before and 24 h after H2O2 2 mM)"
,GAGVSAE [SEQ ID No. 4],more intense fluorescence,39%,more intense fluorescence,63%,,,,,,,,,,,,
More intense fluorescence,Gly-Ala-Gly-Val-Ser-Ala-Glu-NH2 (GAGVSAE-NH2) [SEQ ID No. 5],,,,,more intense fluorescence,maintained for the long term,35%,24.8%,more intense fluorescence,maintained for the long term,47%,More intense fluorescence,More intense fluorescence,More intense fluorescence,20%,16%
,Thr-Gln-Asn-Ile-Asp-Glu-Leu-NH2 (TQNIDEL-NH2) [SEQ ID No. 7],,,,,more intense fluorescence,maintained for the long term,,,more intense fluorescence,maintained for the long term,,,,,,

# Source: US8569243B2, “Sirtuin 6 activating peptides and cosmetic or pharmaceutical composition containing them” (ISP Investments Inc., priority 2010, dated 2013)
